From patent US12344603B2 (Genentech, Inc., priority 2020, dated 2025) come the findings set out here.

Counter-ions that a name gives are not always drawn.

For the assay, the target named is IRE1α (Homo sapiens (Human), UniProt O75460, D688N). As to the kind of experiment: IRE1α TR-FRET competition binding assay (IRE1α HTRF). The following applies: TR-FRET competition binding to kinase domain of IRE1α. Put shortly:
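Competition of compounds against an Alexa fluor 647 ATP-site probe (2 nM final) for the His-tagged kinase domain (0.25 nM final), detected via 2 nM Eu anti-His antibody by TR-FRET, 665 and 615 nm emission. Protein–antibody premix 1 h, 4° C; reaction 1 h, room temperature, pH 7.5 HEPES buffer.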

Chain of IRE1α (O75460 547-977 D688N): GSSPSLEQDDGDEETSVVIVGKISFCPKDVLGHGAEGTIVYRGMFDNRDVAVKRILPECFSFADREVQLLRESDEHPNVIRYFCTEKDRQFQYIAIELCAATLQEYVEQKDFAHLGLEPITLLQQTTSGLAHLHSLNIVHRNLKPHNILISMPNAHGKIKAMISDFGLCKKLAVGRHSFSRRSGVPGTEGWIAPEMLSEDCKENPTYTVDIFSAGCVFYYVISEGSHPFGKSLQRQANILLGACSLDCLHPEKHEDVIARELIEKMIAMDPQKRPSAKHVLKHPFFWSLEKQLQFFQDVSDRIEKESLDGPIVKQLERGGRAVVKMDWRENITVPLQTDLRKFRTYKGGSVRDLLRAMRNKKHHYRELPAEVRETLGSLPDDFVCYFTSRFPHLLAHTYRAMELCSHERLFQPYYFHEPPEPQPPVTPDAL

One may read the IC50 as the concentration that inhibits the measured activity by half. Higher therefore signals weaker potency. `O=c1c(-c2ccc(NS(=O)(=O)Cc3ccccc3)c(F)c2F)cc2cnc(N[C@@H]3CNC[C@@H](F)C3)nc2n1CC(F)F` [Compound 11, N-(4-(8-(2,2-Difluoroethyl)-2-(((3S,5S)-5-fluoropiperidin-3-yl)amino)-7-oxo-7,8-dihydropyrido[2,3-d]pyrimidin-6-yl)-2,3-difluorophenyl)-1-phenylmethanesulfonamide] showed an IC50 of 1.1 nM.

On to `CC(C)n1c(=O)c(-c2ccc(NS(=O)(=O)CCC(F)(F)F)c(F)c2)cc2cnc(N[C@H]3CC[C@H](N(C)C4COC4)CC3)nc21` [Compound 206, 3,3,3-Trifluoro-N-(2-fluoro-4-(8-isopropyl-2-(((1,4-trans)-4-(methyl(oxetan-3-yl)amino)cyclohexyl)amino)-7-oxo-7,8-dihydropyrido[2,3-d]pyrimidin-6-yl)phenyl)propane-1-sulfonamide], for which the IC50 stood at 0.17 nM.

Regarding `CC(C)n1c(=O)c(-c2ccc(NS(=O)(=O)CCC(F)(F)F)c(F)c2)cc2cnc(NC3CCC(N(C)C)C(F)C3)nc21` (racemic) [Compound 154, N-(4-(2-((4-(Dimethylamino)-3-fluorocyclohexyl)amino)-8-isopropyl-7-oxo-7,8-dihydropyrido[2,3-d]pyrimidin-6-yl)-2-fluorophenyl)-3,3,3-trifluoropropane-1-sulfonamide hydrochloride], the IC50 (hydrochloride) came out at 0.13 nM.

The compound `CC(C)n1c(=O)c(-c2ccc(NS(=O)(=O)CCC(F)(F)F)c(F)c2)cc2cnc(N[C@H]3CCC[C@@H](N(C)C)C3)nc21` [Compound 114, N-(4-(2-(((1S,3R)-3-(Dimethylamino)cyclohexyl)amino)-8-isopropyl-7-oxo-7,8-dihydropyrido[2,3-d]pyrimidin-6-yl)-2-fluorophenyl)-3,3,3-trifluoropropane-1-sulfonamide] gave an IC50 of 180 nM.

For `CC1CC1C(=O)Nc1c(F)cc(-c2cc3cnc(N[C@H]4CC[C@H](N(C)C)CC4)nc3n(C(C)C)c2=O)c(F)c1F` (stereo partly drawn) [Compound 58, (1S,2R)—N-(4-(2-(((1r,4r)-4-(dimethylamino)cyclohexyl)amino)-8-isopropyl-7-oxo-7,8-dihydropyrido[2,3-d]pyrimidin-6-yl)-2,3,6-trifluorophenyl)-2-methylcyclopropane-1-carboxamide], the IC50 amounted to 5.7 nM.

With `CC(C)n1c(=O)c(-c2ccc(NS(=O)(=O)CC3CC4(CCC4)C3)c(F)c2)nc2cnc(N[C@H]3CC[C@H](N(C)C)CC3)nc21` [Example 260, N-[4-[2-[[4-(Dimethylamino)cyclohexyl]amino]-8-isopropyl-7-oxo-pteridin-6-yl]-2-fluoro-phenyl]-1-spiro[3.3]heptan-2-yl-methanesulfonamide], the IC50 was 0.2 nM.

`CC(C)n1c(=O)c(-c2c(F)cc(NS(=O)(=O)Cc3ccc(F)cc3)cc2F)cc2cnc(N[C@H]3CC[C@H](N(C)C)CC3)nc21` [Compound 129, N-(4-(2-(((1r,4r)-4-(Dimethylamino)cyclohexyl)amino)-8-isopropyl-7-oxo-7,8-dihydropyrido[2,3-d]pyrimidin-6-yl)-3,5-difluorophenyl)-1-(4-fluorophenyl)methanesulfonamide hydrochloride] gave an IC50 of 0.08 nM.

For the compound `CC(C)n1c(=O)c(-c2ccc(NS(=O)(=O)Cc3ccccc3)c(F)c2F)cc2cnc(N[C@@H]3CNC[C@@H](F)C3)nc21` [Compound 9, N-(2,3-Difluoro-4-(2-(((3S,5S)-5-fluoropiperidin-3-yl)amino)-8-isopropyl-7-oxo-7,8-dihydropyrido[2,3-d]pyrimidin-6-yl)phenyl)-1-phenylmethanesulfonamide], the concentration for half-maximal inhibition (IC50) is 0.28 nM.

The compound `CC(C)n1c(=O)c(-c2ccc(NS(=O)(=O)CCC3CC3(F)F)c(F)c2)nc2cnc(N[C@H]3CC[C@H](N(C)C)CC3)nc21` (some centres unmarked) [Example 259, 2-(2,2-Difluorocyclopropyl)-N-[4-[2-[[4-(dimethylamino)cyclohexyl]amino]-8-isopropyl-7-oxo-pteridin-6-yl]-2-fluoro-phenyl]ethanesulfonamide] showed an IC50 of 0.2 nM.

Compound `CC(C)n1c(=O)c(-c2cc(F)c(NS(=O)(=O)CCC(C)(F)F)c(F)c2)nc2cnc(N[C@H]3CC[C@H](N(C)C)CC3)nc21` [Example 241, N-[4-[2-[[4-(Dimethylamino)cyclohexyl]amino]-8-isopropyl-7-oxo-pteridin-6-yl]-2,6-difluoro-phenyl]-3,3-difluoro-butane-1-sulfonamide] registered an IC50 of 0.2 nM.

Consider `Cc1nc(NS(=O)(=O)c2ccccc2C#N)ccc1-c1cc2cnc(N[C@H]3CC[C@H](N(C)C)CC3)nc2n(C(C)C)c1=O` [Compound 136, 2-Cyano-N-(5-(2-(((1r,4r)-4-(dimethylamino)cyclohexyl)amino)-8-isopropyl-7-oxo-7,8-dihydropyrido[2,3-d]pyrimidin-6-yl)-6-methylpyridin-2-yl)benzenesulfonamide], for which the IC50 worked out at 0.29 nM.

`CC(C)n1c(=O)c(-c2ccc(NS(=O)(=O)Cc3ccccc3C#N)c(F)c2)nc2cnc(N[C@@H]3CNC[C@@H](F)C3)nc21` [Compound 80, 1-(2-Cyanophenyl)-N-[2-fluoro-4-[2-[[(3S,5S)-5-fluoro-3-piperidyl]amino]-8-isopropyl-7-oxo-pteridin-6-yl]phenyl]methanesulfonamide]: the IC50 was 0.2 nM.

With `CCCS(=O)(=O)Nc1ccc(-c2nc3cnc(N[C@@H]4CNC[C@H](CF)C4)nc3n(C(C)C)c2=O)cc1F` [Compound 79, N-[2-Fluoro-4-[2-[[(3S,5R)-5-(fluoromethyl)-3-piperidyl]amino]-8-isopropyl-7-oxo-pteridin-6-yl]phenyl]propane-1-sulfonamide], the IC50 came out at 1.5 nM.

The compound `CC(C)n1c(=O)c(-c2ccc(NS(=O)(=O)CCC(F)(F)F)c(F)c2)cc2cnc(N[C@H]3CC[C@H](N(C)CC4COC4)CC3)nc21` [Compound 204, 3,3,3-Trifluoro-N-(2-fluoro-4-(8-isopropyl-2-(((1,4-trans)-4-(methyl(oxetan-3-ylmethyl)amino)cyclohexyl)amino)-7-oxo-7,8-dihydropyrido[2,3-d]pyrimidin-6-yl)phenyl)propane-1-sulfonamide] displayed an IC50 of 1 nM.

In the case of `Cc1cc(NS(=O)(=O)CCC(F)(F)F)ncc1-c1nc2cnc(N[C@H]3CC[C@H](N(C)C)CC3)nc2n(C(C)C)c1=O` [Compound 186, N-(5-(2-(((1r,4r)-4-(Dimethylamino)cyclohexyl)amino)-8-isopropyl-7-oxo-7,8-dihydropteridin-6-yl)-4-methylpyridin-2-yl)-3,3,3-trifluoropropane-1-sulfonamide], the IC50 was 0.95 nM.

The compound `CC(C)n1c(=O)c(-c2ccc(NS(=O)(=O)Cc3ccc(F)cc3)c(F)c2)cc2cnc(N[C@@H]3CNC[C@@H](F)C3)nc21` [Compound 112, N-(2-Fluoro-4-(2-(((3S,5S)-5-fluoropiperidin-3-yl)amino)-8-isopropyl-7-oxo-7,8-dihydropyrido[2,3-d]pyrimidin-6-yl)phenyl)-1-(4-fluorophenyl)methanesulfonamide hydrochloride] came in with an IC50 of 0.13 nM.

Turning to `O=c1c(-c2ccc(NS(=O)(=O)Cc3ccccc3)c(F)c2F)cc2cnc(N[C@@H]3CNC[C@@H](F)C3)nc2n1C1CC1` [Compound 10, N-(4-(8-cyclopropyl-2-(((3S,5S)-5-fluoropiperidin-3-yl)amino)-7-oxo-7,8-dihydropyrido[2,3-d]pyrimidin-6-yl)-2,3-difluorophenyl)-1-phenylmethanesulfonamide], the IC50 stood at 1.1 nM.

As to `CC(C)n1c(=O)c(-c2ccc(NS(=O)(=O)CCC(C)(F)F)c(F)c2)nc2cnc(N[C@H]3CC[C@H](N(C)C)CC3)nc21` [Compound 66, N-(4-(2-(((1r,4r)-4-(Dimethylamino)cyclohexyl)amino)-8-isopropyl-7-oxo-7,8-dihydropteridin-6-yl)-2-fluorophenyl)-3,3-difluorobutane-1-sulfonamide], the IC50 stood at 0.29 nM.

As to `CC(C)n1c(=O)c(-c2cc(F)c(NS(=O)(=O)CCC(F)(F)F)c(F)c2)cc2cnc(N[C@H]3CC[C@H](N(C)C)CC3)nc21` [Compound 70, N-(4-(2-(((1,4-trans)-4-(Dimethylamino)cyclohexyl)amino)-8-isopropyl-7-oxo-7,8-dihydropyrido[2,3-d]pyrimidin-6-yl)-2,6-difluorophenyl)-3,3,3-trifluoropropane-1-sulfonamide], the IC50 turned out to be 0.26 nM.

`CCn1c(=O)c(-c2cc(F)c(NS(=O)(=O)CC3(F)CC3)c(F)c2F)cc2cnc(N[C@@H]3CNC[C@@H](F)C3)nc21` [Compound 48, N-(4-(8-ethyl-2-(((3S,5S)-5-fluoropiperidin-3-yl)amino)-7-oxo-7,8-dihydropyrido[2,3-d]pyrimidin-6-yl)-2,3,6-trifluorophenyl)-1-(1-fluorocyclopropyl)methanesulfonamide] returned an IC50 of 28 nM.

Compound `CCn1c(=O)c(-c2cc(NS(=O)(=O)Cc3ccccc3)nn2C)cc2cnc(N[C@@H]3CNC[C@@H](F)C3)nc21` [Compound 69, N-(5-(8-ethyl-2-(((3S,5S)-5-fluoropiperidin-3-yl)amino)-7-oxo-7,8-dihydropyrido[2,3-d]pyrimidin-6-yl)-1-methyl-1H-pyrazol-3-yl)-1-phenylmethanesulfonamide] had an IC50 of 98 nM.

`CC(C)n1c(=O)c(-c2ccc(NS(=O)(=O)CC3CCCCC3)c(F)c2)cc2cnc(N[C@H]3CC[C@H](N(C)C)CC3)nc21` [Compound 115, 1-Cyclohexyl-N-(4-(2-(((1r,4r)-4-(dimethylamino)cyclohexyl)amino)-8-isopropyl-7-oxo-7,8-dihydropyrido[2,3-d]pyrimidin-6-yl)-2-fluorophenyl)methanesulfonamide] showed an IC50 of 0.15 nM.

As to `Cc1ccc(CS(=O)(=O)Nc2c(F)cc(-c3nc4cnc(N[C@H]5CC[C@H](N(C)C)CC5)nc4n(C(C)C)c3=O)cc2F)cc1` [Example 246, N-[4-[2-[[4-(Dimethylamino)cyclohexyl]amino]-8-isopropyl-7-oxo-pteridin-6-yl]-2,6-difluoro-phenyl]-1-(p-tolyl)methanesulfonamide], the concentration for half-maximal inhibition (IC50) is 0.2 nM.
